Experimental data reported in patent publication US20220227700A1, “HDAC3 CATALYTIC INHIBITOR DEVELOPMENT AND USES THEREOF” (DANA-FARBER CANCER INSTITUTE, INC., priority 2019, published 2022).
Where two headings read alike, the source gives them in different places.

Columns and labels:
Format in all cases: biochemical
HDAC2 = molecular target: T1, HDAC2 (Homo sapiens, UniProt Q92769); assay: HDAC enzyme assay, HDAC2 (fluorogenic, 384-well); details: read-out: IC50 HDAC2 (Tables 4-23, isoform selectivity panel)
T1 construct: recombinant, full-length HDAC protein (HDAC1 100 pg/ul, HDAC2 200 pg/ul); purchased BPS Biosciences, San Diego, Calif., USA
Protocol: (§1) The inhibitory effect of compounds on HDAC1-HDAC9 function was determined in vitro using an optimized homogenous assay performed in a 384-well plate format. […] Reactions were performed in assay buffer (50 mM HEPES, 100 mM KCl, 0.001% (v/v) Tween 20, 0.05% (w/v) bovine serum albumin, 200 μM TCEP, pH 7.4) and followed for fluorogenic release of 7-amino-4-methylcoumarin from substrate upon deacetylase and trypsin enzymatic activity. Trypsin was present at a final concentration of 50 nM (Worthington Biochemical Corporation). Fluorescence measurements were obtained approximately every 5 min using a multilabel plate reader and plate stacker (Envision, Perkin-Elmer). Data were analyzed on a plate-by-plate basis for the linear range of fluorescence overtime. The first derivative of data obtained from the plate capture corresponding to the mid-linear range was imported into analytical software (Spotfire DecisionSite and GraphPad Prism). Replicate experimental data from incubations with inhibitor were normalized to DMSO controls. IC50 is determined by logistic regression with unconstrained maximum and minimum values.

HDAC1 = molecular target: T2, HDAC1 (Homo sapiens, UniProt Q13547); assay: HDAC enzyme assay, HDAC1 (fluorogenic, 384-well); details: read-out: IC50 HDAC1 (Tables 4-23, isoform selectivity panel)
T2 construct: recombinant, full-length HDAC protein (HDAC1 100 pg/ul); purchased BPS Biosciences, San Diego, Calif., USA
Protocol: as §1

HDAC3 = molecular target: T3, HDAC3 (Homo sapiens, UniProt O15379); assay: HDAC enzyme assay, HDAC3 (fluorogenic, 384-well); details: for IC50: recombinant full-length HDAC3, 3 hours incubation, substrate MAZ1600 at Km
T3 construct: recombinant, full-length HDAC protein (HDAC1 100 pg/ul, HDAC2 200 pg/ul, HDAC3 100 pg/ul); purchased BPS Biosciences, San Diego, Calif., USA
Protocol: as §1

[1] = FIGS. 4A-4D, read-out: IC50 HDAC3 (Tables 4-23, isoform selectivity panel)
[2] = read-out: IC50 against HDAC3 (Table 3, data of FIG. 2)

T3 sequence (O15379 whole entry): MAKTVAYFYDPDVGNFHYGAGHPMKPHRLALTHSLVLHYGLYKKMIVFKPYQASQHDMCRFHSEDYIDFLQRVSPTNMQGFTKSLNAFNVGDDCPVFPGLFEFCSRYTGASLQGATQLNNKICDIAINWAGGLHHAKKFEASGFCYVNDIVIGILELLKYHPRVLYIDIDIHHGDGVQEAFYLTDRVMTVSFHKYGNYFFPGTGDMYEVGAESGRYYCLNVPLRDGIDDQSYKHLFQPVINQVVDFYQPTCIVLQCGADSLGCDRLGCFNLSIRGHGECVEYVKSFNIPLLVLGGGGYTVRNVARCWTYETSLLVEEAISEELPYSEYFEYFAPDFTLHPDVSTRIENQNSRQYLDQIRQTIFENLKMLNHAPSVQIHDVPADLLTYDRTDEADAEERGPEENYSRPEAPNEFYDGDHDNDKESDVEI
T3 sequence (Q9Y618 395-489 partner limits assumed): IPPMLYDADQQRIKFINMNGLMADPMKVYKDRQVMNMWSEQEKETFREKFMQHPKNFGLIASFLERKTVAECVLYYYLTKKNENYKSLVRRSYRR
T1 sequence (Q92769 whole entry, canonical isoform): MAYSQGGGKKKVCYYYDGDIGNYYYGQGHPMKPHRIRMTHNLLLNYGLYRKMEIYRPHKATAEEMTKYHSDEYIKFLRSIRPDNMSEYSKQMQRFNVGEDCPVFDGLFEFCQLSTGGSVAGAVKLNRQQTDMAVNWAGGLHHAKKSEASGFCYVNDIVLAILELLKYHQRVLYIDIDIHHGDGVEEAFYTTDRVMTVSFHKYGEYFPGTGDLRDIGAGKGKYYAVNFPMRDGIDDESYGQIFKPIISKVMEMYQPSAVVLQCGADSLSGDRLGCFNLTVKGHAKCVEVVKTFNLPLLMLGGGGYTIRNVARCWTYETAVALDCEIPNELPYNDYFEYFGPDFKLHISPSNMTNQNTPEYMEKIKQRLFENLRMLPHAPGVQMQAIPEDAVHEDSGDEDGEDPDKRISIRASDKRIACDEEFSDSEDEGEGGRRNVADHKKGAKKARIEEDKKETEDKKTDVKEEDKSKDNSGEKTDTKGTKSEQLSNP
T2 sequence (Q13547 whole entry, canonical isoform): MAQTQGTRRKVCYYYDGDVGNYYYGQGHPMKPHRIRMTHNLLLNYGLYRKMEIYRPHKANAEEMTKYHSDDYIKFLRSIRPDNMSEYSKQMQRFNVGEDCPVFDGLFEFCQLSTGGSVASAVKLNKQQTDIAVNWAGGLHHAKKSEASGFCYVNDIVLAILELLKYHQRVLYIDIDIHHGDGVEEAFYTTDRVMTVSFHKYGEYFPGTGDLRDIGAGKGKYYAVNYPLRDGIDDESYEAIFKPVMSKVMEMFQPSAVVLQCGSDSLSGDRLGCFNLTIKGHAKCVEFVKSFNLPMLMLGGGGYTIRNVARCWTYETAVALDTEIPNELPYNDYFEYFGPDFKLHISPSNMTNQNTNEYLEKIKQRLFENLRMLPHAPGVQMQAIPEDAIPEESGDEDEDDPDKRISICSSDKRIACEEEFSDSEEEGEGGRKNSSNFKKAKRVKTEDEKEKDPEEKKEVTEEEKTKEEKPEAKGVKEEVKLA

| IC50 (HDAC2) | IC50 (HDAC1) | IC50 (HDAC3; [1]) | IC50 (HDAC3; [2]) | Compound | Selectivity for HDAC3 over other HDAC isoforms (HDAC3; HDAC inhibition assays, FIGS. 1A, 1B, 2, 3) |
| --- | --- | --- | --- | --- | --- |
| 0.44 µM | 0.81 µM | 0.28 µM | 0.26 µM | Nc1cc(F)ccc1NC(=O)c1ccc(C(=O)Nc2ccc(N3CCOCC3)cc2)cc1 (racemic) [DL-HDAC5] | – |
| 0.59 µM | 1.73 µM | 0.33 µM | 0.29 µM | Nc1cc(F)ccc1NC(=O)c1ccc(C(=O)NCCc2cccnc2)cc1 (racemic) [DL-HDAC20] | – |
| 0.49 µM | 1.05 µM | 0.23 µM | 0.23 µM | Nc1cc(F)ccc1NC(=O)c1ccc(C(=O)Nc2cccc3[nH]ccc23)cc1 (racemic) [DL-HDAC3] | – |
| 1.8 µM | 3.92 µM | 0.73 µM | 0.71 µM | Nc1cc(F)ccc1NC(=O)c1ccc(C(=O)NCCCBr)cc1 (racemic) [DL-HDAC15] | – |
| 0.22 µM | 1.22 µM | 0.17 µM | 0.15 µM | CC(=O)c1ccc(NC(=O)c2ccc(C(=O)Nc3ccc(F)cc3N)cc2)cc1 (racemic) [DL-HDAC17] | – |
| 0.66 µM | 1.65 µM | 0.42 µM | 0.41 µM | CC(NC(=O)c1ccc(C(=O)Nc2ccc(F)cc2N)cc1)c1ccccc1[N+](=O)[O-] (racemic) [DL-HDAC8] | – |
| 0.36 µM | 0.6 µM | 0.27 µM | 0.27 µM | Nc1cc(F)ccc1NC(=O)c1ccc(C(=O)Nc2ccccc2)cc1 (racemic) [DL-HDAC12] | – |
| – | – | 11.1 µM | 10.5 µM | Nc1cc(F)ccc1NC(=O)c1ccc(C(=O)Nc2cccc3ncccc23)cc1 (racemic) [DL-HDAC1] | – |
| 0.88 µM | 3.49 µM | 0.56 µM | 0.53 µM | Nc1cc(F)ccc1NC(=O)c1ccc(C(=O)NC2CCNCC2)cc1 (racemic) [DL-HDAC18] | – |
| 0.99 µM | 2.62 µM | 0.42 µM | 0.39 µM | Nc1cc(F)ccc1NC(=O)c1ccc(C(=O)NCC(F)(F)F)cc1 (racemic) [DL-HDAC16] | – |
| 0.094 µM | 0.2 µM | 0.12 µM | 0.12 µM | Nc1cc(F)ccc1NC(=O)c1ccc(C(=O)NCc2ccc(Br)cc2)cc1 (racemic) [DL-HDAC13] | – |
| – | – | 0.26 µM | 0.27 µM | Nc1cc(F)ccc1NC(=O)c1ccc(C(=O)Nc2cccc3sccc23)cc1 (racemic) [DL-HDAC4] | – |
| 0.85 µM | 2.07 µM | 0.45 µM | 0.45 µM | Cc1cc(NC(=O)c2ccc(C(=O)Nc3ccc(F)cc3N)cc2)n[nH]1 (racemic) [DL-HDAC10] | – |
| – | – | – | 0.39 µM | Nc1cc(F)ccc1NC(=O)c1ccc(C(=O)NCc2ccccn2)cc1 [LW3] | selectively inhibits HDAC3 over other HDAC isoforms |
| 0.61 µM | 2.79 µM | 0.29 µM | 0.27 µM | Nc1cc(F)ccc1NC(=O)c1ccc(C(=O)NCCCn2ccnc2)cc1 (racemic) [DL-HDAC19] | – |
| 0.93 µM | 1.55 µM | 0.55 µM | 0.63 µM | Nc1cc(F)ccc1NC(=O)c1ccc(C(=O)Nc2cccc3cnccc23)cc1 (racemic) [DL-HDAC9] | – |
| 4.69 µM | 36 µM | 8.81 µM | 7.77 µM | COc1cc(-c2ccccc2)ccc1NC(=O)c1ccc(C(=O)Nc2ccc(F)cc2N)cc1 (racemic) [DL-HDAC11] | – |
| – | – | 1.33 µM | 1.33 µM | Nc1cc(F)ccc1NC(=O)c1ccc(C(=O)Nc2ccc(Cl)c(C(F)(F)F)c2)cc1 (racemic) [DL-HDAC2] | – |
